Experimental data from patent US10370343B2, “[6,6] Fused bicyclic HDAC8 inhibitors” (FORMA Therapeutics, Inc., priority 2015, dated 2019).

Each compound was assayed against T1, Full length human recombinant HDAC8 protein (Homo sapiens, UniProt Q9BY41) (assay: In vitro histone deacetylase assay: enzymatic HDAC8 electrophoretic mobility shift assay). Conditions: electrophoretic mobility shift assay; enzyme 1 nM; 2 μM fluorescently labeled peptide substrate RHKK(Ac)-NH2; 25° C.; 12 concentrations; read-out: HDAC8 IC50.
T1 construct: Full length human recombinant HDAC8 protein was expressed in baculoviral system; made in house
T1 sequence (Q9BY41 1-377): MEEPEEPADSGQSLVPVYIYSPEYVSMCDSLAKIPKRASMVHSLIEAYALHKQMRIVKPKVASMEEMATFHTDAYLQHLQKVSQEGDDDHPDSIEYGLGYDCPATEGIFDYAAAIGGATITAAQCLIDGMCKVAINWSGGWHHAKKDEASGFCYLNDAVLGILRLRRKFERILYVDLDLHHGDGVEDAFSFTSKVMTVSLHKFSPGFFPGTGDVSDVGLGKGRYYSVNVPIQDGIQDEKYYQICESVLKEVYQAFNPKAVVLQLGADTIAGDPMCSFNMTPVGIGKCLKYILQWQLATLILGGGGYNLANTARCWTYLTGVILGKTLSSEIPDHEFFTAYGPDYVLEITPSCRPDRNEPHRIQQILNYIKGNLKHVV
Type: biochemical
Description: The enzymatic HDAC8 assay was performed using electrophoretic mobility shift assay. Full length human recombinant HDAC8 protein was expressed in baculoviral system and purified by affinity chromatography. The enzymatic reactions were assembled in 384 well plates in a total volume of 25 μL in a reaction buffer composing: 100 mM HEPES, pH7.5, 25 mM KCl, 0.1% bovine serum albumin, 0.01% Triton X-100, 1% DMSO (from compounds) 2 μM of the fluorescently labeled peptide substrate and enzyme. The enzyme was added at a final concentration of 1 nM. The peptide substrate RHKK(Ac)—NH2 was used. The compounds were tested at 12 concentrations spaced by 3× dilution intervals. Negative control samples (0%-inhibition in the absence of inhibitor) and positive control samples (100%-inhibition) were assembled in replicates of four in each assay plate. The reactions were incubated at 25° C. and quenched by the addition of 45 μL of termination buffer (100 mM HEPES, pH 7.5, 0.01% Triton X-100, 0.05% SDS).
The terminated assay plates were analyzed on LabChip® 3000 microfluidic electrophoresis instrument (Perkin Elmer/Caliper Life Sciences). The fluorescence intensity of the electrophoretically separated de-acetylated product and substrate peptide was measured. Activity in each sample was determined as the product to sum ratio (PSR): P/(S+P), where P is the peak height of the product peptide and S is the peak height of the substrate peptide. Percent inhibition (Pinh) is determined using the following equation: Pinh=(PSR0%−PSRinh)/(PSR0%−PSR100%)*100, where PSRinh is the product sum ratio in the presence of inhibitor, PSR0% is the average product sum ration in the absence of inhibitor and PSR100% is the average product sum ratio in 100%-inhibition control samples. The IC50 values of inhibitors were determined by fitting the %-inhibition curves with 4 parameter dose-response model using XLfit 4 software.

`CN1CC(C(=O)NC2CCOCC2)Oc2cc(C(=O)NO)ccc21` (centres unmarked) [Compound I-7, N^7-hydroxy-4-methyl-N^2-(tetrahydro-2H-pyran-4-yl)-3,4-dihydro-2H-benzo[b][1,4]oxazine-2,7-dicarboxamide] and `O=C(NO)c1ccc2c(c1)OC(C(=O)NC1CCOCC1)CN2Cc1ccccc1` (centres unmarked) [Compound I-8, 4-benzyl-N^7-hydroxy-N^2-(tetrahydro-2H-pyran-4-yl)-3,4-dihydro-2H-benzo[b][1,4]oxazine-2,7-dicarboxamide] fall in the same range of IC50: 100 to 1000 nM for the first, 100 to 1000 nM for the second.

First: CN1CC(C(=O)N2CC3(CC3)c3ccccc32)Oc2cc(C(=O)NO)ccc21 (centres unmarked) [Compound I-9, N-hydroxy-4-methyl-2-(spiro[cyclopropane-1,3′-indoline]-1′-carbonyl)-3,4-dihydro-2H-benzo[b][1,4]oxazine-7-carboxamide]
Second: O=C(NO)c1ccc2c(c1)OC(C(=O)N1CC3(CC3)c3ccccc31)CN2Cc1ccccc1 (centres unmarked) [Compound I-10, 4-benzyl-N-hydroxy-2-(spiro[cyclopropane-1,3′-indoline]-1′-carbonyl)-3,4-dihydro-2H-benzo[b][1,4]oxazine-7-carboxamide]
The IC50 of the first is lower: less than 25 nM for the first, 25 to 100 nM for the second.

First: CN1CC(C(=O)NCc2ccccc2)Oc2cc(C(=O)NO)ccc21 (centres unmarked) [Compound I-11, N^2-benzyl-N^7-hydroxy-4-methyl-3,4-dihydro-2H-benzo[b][1,4]oxazine-2,7-dicarboxamide]
Second: O=C(NO)c1ccc2c(c1)OC(C(=O)NCc1ccccc1)CN2Cc1ccccc1 (centres unmarked) [Compound I-12, N^2,4-dibenzyl-N^7-hydroxy-3,4-dihydro-2H-benzo[b][1,4]oxazine-2,7-dicarboxamide]
The IC50 of the first is lower: 25 to 100 nM for the first, 100 to 1000 nM for the second.

`COCCn1c(N2CCCc3c(C(=O)NO)cccc32)nc2ccccc21` [Compound I-13, N-hydroxy-1-(1-(2-methoxyethyl)-1H-benzo[d]imidazol-2-yl)-1,2,3,4-tetrahydroquinoline-5-carboxamide] and `O=C(NO)c1cccc2c1CCCN2c1nc2ccccc2[nH]1` [Compound I-14, 1-(1H-1,3-benzodiazol-2-yl)-N-hydroxy-1,2,3,4-tetrahydroquinoline-5-carboxamide] cannot be ordered by IC50: greater than 1000 nM for the first, greater than 1000 nM for the second.

First: O=C(NO)c1ccc2c(c1)N(Cc1cccc(S(=O)(=O)C(F)(F)F)c1)CCS2(=O)=O [Compound I-15, N-hydroxy-4-(3-((trifluoromethyl)sulfonyl)benzyl)-3,4-dihydro-2H-benzo[b][1,4]thiazine-6-carboxamide-1,1-dioxide]
Second: O=C(NO)c1ccc2c(c1)N(Cc1cccc(S(=O)(=O)C(F)(F)F)c1)C(=O)CO2 [Compound I-18, N-hydroxy-3-oxo-4-(3-((trifluoromethyl)sulfonyl)benzyl)-3,4-dihydro-2H-benzo[b][1,4]oxazine-6-carboxamide]
The IC50 of the first is lower: less than 25 nM for the first, 100 to 1000 nM for the second.

`CC(c1ccc(S(C)(=O)=O)cc1)N1CCS(=O)(=O)c2ccc(C(=O)NO)cc21` (centres unmarked) [Compound I-16, N-hydroxy-4-(1-(4-(methylsulfonyl)phenyl)ethyl)-3,4-dihydro-2H-benzo[b][1,4]thiazine-6-carboxamide-1,1-dioxide] and `O=C(NO)c1ccc2c(c1)N(Cc1ccc(S(=O)(=O)C(F)(F)F)cc1)C(=O)CO2` [Compound I-17, N-hydroxy-3-oxo-4-(4-((trifluoromethyl)sulfonyl)benzyl)-3,4-dihydro-2H-benzo[b][1,4]oxazine-6-carboxamide] cannot be ordered by IC50: less than 25 nM for the first, less than 25 nM for the second.

First: O=C(NO)c1ccc2c(c1)N(Cc1ccc(OC(F)(F)F)cc1)CCO2 [Compound I-19, N-hydroxy-4-(4-(trifluoromethoxy)benzyl)-3,4-dihydro-2H-benzo[b][1,4]oxazine-6-carboxamide]
Second: O=C(NO)c1ccc2c(c1)N(Cc1ccccc1OC(F)(F)F)CCO2 [Compound I-25, N-hydroxy-4-(2-(trifluoromethoxy)benzyl)-3,4-dihydro-2H-benzo[b][1,4]oxazine-6-carboxamide]
The IC50 of the first is lower: 25 to 100 nM for the first, 100 to 1000 nM for the second.

First: O=C(NO)c1ccc2c(c1)N(Cc1cn3ccsc3n1)CCO2 [Compound I-21, N-hydroxy-4-(imidazo[2,1-b]thiazol-6-ylmethyl)-3,4-dihydro-2H-benzo[b][1,4]oxazine-6-carboxamide]
Second: O=C(NO)c1ccc2c(c1)N(Cc1cccc(F)c1)CCO2 [Compound I-24, 4-(3-fluorobenzyl)-N-hydroxy-3,4-dihydro-2H-benzo[b][1,4]oxazine-6-carboxamide]
The IC50 of the first is higher: 100 to 1000 nM for the first, less than 25 nM for the second. The second is the more potent here.

First: C=C(C)CN1CCOc2ccc(C(=O)NO)cc21 [Compound I-22, N-hydroxy-4-(2-methylallyl)-3,4-dihydro-2H-benzo[b][1,4]oxazine-6-carboxamide]
Second: O=C(NO)c1ccc2c(c1)N(CC(=O)N1CCOCC1)CCO2 [Compound I-26, N-hydroxy-4-(2-morpholino-2-oxoethyl)-3,4-dihydro-2H-benzo[b][1,4]oxazine-6-carboxamide]
The IC50 of the first is lower: 100 to 1000 nM for the first, greater than 1000 nM for the second.

First: O=C(NO)c1ccc2c(c1)N(Cc1c(Cl)cccc1Cl)CCO2 [Compound I-23, 4-(2,6-dichlorobenzyl)-N-hydroxy-3,4-dihydro-2H-benzo[b][1,4]oxazine-6-carboxamide]
Second: CC(C)n1c(CN2CCOc3ccc(C(=O)NO)cc32)nc2ccccc21 [Compound I-28, N-hydroxy-4-((1-isopropyl-1H-benzo[d]imidazol-2-yl)methyl)-3,4-dihydro-2H-benzo[b][1,4]oxazine-6-carboxamide]
The IC50 of the first is lower: 100 to 1000 nM for the first, greater than 1000 nM for the second.

`COCCn1c(CN2CCOc3ccc(C(=O)NO)cc32)nc2ccccc21` [Compound I-29, N-hydroxy-4-((1-(2-methoxyethyl)-1H-benzo[d]imidazol-2-yl)methyl)-3,4-dihydro-2H-benzo[b][1,4]oxazine-6-carboxamide] and `O=C(NO)c1ccc2c(c1)N(Cc1nc3ccccc3n1CC1CC1)CCO2` [Compound I-30, 4-((1-(cyclopropylmethyl)-1H-benzo[d]imidazol-2-yl)methyl)-N-hydroxy-3,4-dihydro-2H-benzo[b][1,4]oxazine-6-carboxamide] fall in the same range of IC50: 100 to 1000 nM for the first, 100 to 1000 nM for the second.

Compared with `O=C(NO)c1ccc2c(c1)N(Cc1ccccc1)C(=O)CO2` [Compound I-32, 4-benzyl-N-hydroxy-3-oxo-3,4-dihydro-2H-benzo[b][1,4]oxazine-6-carboxamide], `O=C(NO)c1ccc2c(c1)N(Cc1ccc(C(F)(F)F)cc1)C(=O)CO2` [Compound I-35, N-hydroxy-3-oxo-4-(4-(trifluoromethyl)benzyl)-3,4-dihydro-2H-benzo[b][1,4]oxazine-6-carboxamide] is lower in IC50: 25 to 100 nM for the first, less than 25 nM for the second. The second is the more potent here.

First: O=C(NO)c1ccc2c(c1)N(CCc1ccc(Cl)cc1)C(=O)CO2 [Compound I-34, 4-(4-chlorophenethyl)-N-hydroxy-3-oxo-3,4-dihydro-2H-benzo[b][1,4]oxazine-6-carboxamide]
Second: CCCN1C(=O)COc2ccc(C(=O)NO)cc21 [Compound I-39, N-hydroxy-3-oxo-4-propyl-3,4-dihydro-2H-benzo[b][1,4]oxazine-6-carboxamide]
The IC50 of the first is lower: 25 to 100 nM for the first, 100 to 1000 nM for the second.

`C#CCN1C(=O)COc2ccc(C(=O)NO)cc21` [Compound I-40, N-hydroxy-3-oxo-4-(prop-2-yn-1-yl)-3,4-dihydro-2H-benzo[b][1,4]oxazine-6-carboxamide] and `C=CCN1C(=O)COc2ccc(C(=O)NO)cc21` [Compound I-41, 4-allyl-N-hydroxy-3-oxo-3,4-dihydro-2H-benzo[b][1,4]oxazine-6-carboxamide] fall in the same range of IC50: 100 to 1000 nM for the first, 100 to 1000 nM for the second.

`O=C(NO)c1ccc2c(c1)N(C1CCCC1)C(=O)CO2` [Compound I-42, 4-cyclopentyl-N-hydroxy-3-oxo-3,4-dihydro-2H-benzo[b][1,4]oxazine-6-carboxamide] and `CCC(C)N1C(=O)COc2ccc(C(=O)NO)cc21` (centres unmarked) [Compound I-46, 4-(sec-butyl)-N-hydroxy-3-oxo-3,4-dihydro-2H-benzo[b][1,4]oxazine-6-carboxamide] fall in the same range of IC50: 100 to 1000 nM for the first, 100 to 1000 nM for the second.

First: COCCN1C(=O)COc2ccc(C(=O)NO)cc21 [Compound I-43, N-hydroxy-4-(2-methoxyethyl)-3-oxo-3,4-dihydro-2H-benzo[b][1,4]oxazine-6-carboxamide]
Second: CC(C)=CCCN1C(=O)COc2ccc(C(=O)NO)cc21 [Compound I-44, N-hydroxy-4-(4-methylpent-3-en-1-yl)-3-oxo-3,4-dihydro-2H-benzo[b][1,4]oxazine-6-carboxamide]
The IC50 of the first is higher: 100 to 1000 nM for the first, 25 to 100 nM for the second. The second is the more potent here.
